Data reported in article PMC11847541, “Liver fatty acid binding protein FABP1 transfers substrates to cytochrome P450 4A11 for catalysis” (The Journal of Biological Chemistry, 2025).

Columns and labels:
P450 4A11 [1] = target: T1, P450 4A11 (Homo sapiens, UniProt Q02928); experiment: Fluorescence titration of Alexa-FABP1 with P450 4A11; format: binding; details: 10 mM potassium phosphate pH 7.4, quadratic fit
T1 construct: made in house; host or cells: E. coli
T1 sequence (Q02928 5-519): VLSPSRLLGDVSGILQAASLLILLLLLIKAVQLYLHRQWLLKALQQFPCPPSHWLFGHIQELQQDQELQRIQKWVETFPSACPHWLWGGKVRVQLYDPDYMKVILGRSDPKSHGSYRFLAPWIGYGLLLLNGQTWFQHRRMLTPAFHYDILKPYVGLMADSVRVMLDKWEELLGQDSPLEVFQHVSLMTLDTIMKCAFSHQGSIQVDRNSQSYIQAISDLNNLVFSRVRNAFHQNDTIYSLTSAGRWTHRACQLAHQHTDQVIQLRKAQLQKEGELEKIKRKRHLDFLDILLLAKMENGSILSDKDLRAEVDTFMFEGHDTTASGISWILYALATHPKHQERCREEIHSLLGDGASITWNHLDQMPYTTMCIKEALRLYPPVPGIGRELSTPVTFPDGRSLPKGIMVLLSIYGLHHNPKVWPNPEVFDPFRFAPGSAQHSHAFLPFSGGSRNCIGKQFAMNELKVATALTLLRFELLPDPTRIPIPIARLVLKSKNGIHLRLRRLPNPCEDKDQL
T1 sequence (P07148 with tags, fused parts or gaps partner): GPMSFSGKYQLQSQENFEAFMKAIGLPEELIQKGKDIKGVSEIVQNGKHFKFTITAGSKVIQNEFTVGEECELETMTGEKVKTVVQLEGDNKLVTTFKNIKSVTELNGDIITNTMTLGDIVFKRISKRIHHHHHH
Procedure: The Alexa-FABP1 construct was tested for P450 binding in a fluorescence titration with P450 4A11.
Figure 10 Binding of Alexa-FABP1 to P450 4A11.A, equilibrium binding titration of Alexa-FABP1 (25 nM) with P450 4A11 as the titrant (0–50 nM). Titrations were performed in 10 mM (closed circles) or 100 mM (open circles) potassium phosphate buffer (pH 7.4). A control reaction was performed with P450 101A1 (P450cam) in 100 mM KPhos (open squares). The change in fluorescence upon protein–protein binding was normalized to the corresponding change in a buffer control. […] Each data point corresponds to one independent replicate, ≥3 biological replicates were collected to confirm the effect. B, kinetics of binding of Alexa-FABP1 (0.125 μM) and P450 4A11 (0.125 μM). Six traces were averaged, and the data were fit to a single exponential curve (in red). The extracted binding rate was 2.0 ± 0.2 s^−1. FABP1, fatty acid binding protein.
Alexa-FABP1 (25 nM [estimated by an asborbance at 280 nm prior to conjugation reaction, accounting for dilution, and assuming no protein loss during the reaction]) was prepared in potassium phosphate buffer (10 mM or 100 mM, pH 7.4) in a 1 ml glass cuvette. A buffer baseline was recorded using an OLIS DM-45 spectrofluorometer (1.24 mm slit width) with excitation wavelength of 470 nm and scanning emission spectra from 500 to 600 nm. P450 4A11 (stored in 100 mM potassium phosphate buffer [pH 7.4] containing 20% glycerol) was titrated (0–50 nM) into the Alexa-FABP1 solution. The same experiment was repeated but with the P450 4A11 buffer used as the titrant to normalize the data for any solvent effect. […] As stimulation was observed by the P450 interaction, the value of one was subtracted from the normalized fluorescence values so that the curve would have an (x, y) intercept of (0, 0). Kd values were calculated fitting plots of the normalized fluorescence at emission maximum versus concentration of P450 4A11 using a quadratic equation in GraphPad Prism software.

[2] = parameters: method as in PMID 2335507; details: cited from earlier work
P450 4A11 [3] = target: T2, P450 4A11 (Homo sapiens, UniProt Q02928); experiment: Stopped-flow kinetics of palmitate binding to P450 4A11 (type I shift); parameters: made in house; host or cells: E. coli; details: P450 4A11 1 μM, palmitate 5 μM; read-out: kon to P450 4A11 (k1)
T2 sequence (Q02928 5-519): T1 sequence (Q02928 5-519)
Procedure: To assess the rates of lipid binding to P450 4A11 (k1), type I spectral shift (from ∼420 nm to ∼390 nm, described previously) was monitored after rapid mixing of P450 and palmitate (Fig. 9A, magenta [substrate free], blue [substrate bound]). When P450 4A11 (1 μM) was mixed with palmitate (5 μM), slow binding kinetics were observed (Fig. 9B). Single exponential fitting of the data yielded a binding rate of 0.21 ± 0.03 s^−1 (kon = k1 = 4.2 ± 0.6 × 10^4 M^−1 s^−1).
Figure 9 Kinetics of fatty acid binding to P450 4A11.A, spectra were collected with 1 μM P450 4A11 (purple line) to which 5 μM palmitate (blue line) and 50 μM ketoconazole (red line) were successively added to induce characteristic P450 “type I” and “type II” spectral shifts, respectively. B, P450 4A11 (1 μM) was rapidly mixed with palmitate (5 μM), and the P450 blue shift (A) was monitored and fit to an exponential equation (blue line) yielding a kon value of 0.21 ± 0.03 s^−1. C, 16-OH palmitate (4 μM) and D, palmitate (10 μM) were preincubated with P450 4A11 (2 μM) and rapidly mixed with ketoconazole (100 μM), and the P450 red shift (part A) was monitored and fit to biexponential equations (red lines). […]
On-rates (kon) to P450 4A11 with lipids were determined by monitoring the hypsochromic (“blue,” “type I”) shift in the heme Soret (A418 [hexacoordinated] → A390 [pentacoordinated]) as substrate binds. […]

FABP1 = target: T3, FABP1 (Homo sapiens, UniProt P07148); details: human FABP1, fluorescence displacement assay; read-out: Kd; cited from earlier work
T3 construct: GST (N, cleaved yes); made in house; host or cells: Escherichia coli DH5α
T3 sequence (P07148 with tags, fused parts or gaps): T1 sequence (P07148 with tags, fused parts or gaps partner)

Compound | Kd (P450 4A11 [1]) | rate of FABP1 lipid transfer to phospholipid membranes [2] | kon (P450 4A11 [3]) | Kd (FABP1)
FABP1: delipidated recombinant liver fatty acid binding protein with C-terminal hexahistidine tag | ~3 nM | ~0.005 s⁻¹ |  | 
CCCCCCCCCCCCCCCC(=O)O [Palmitate (C16), palmitate] |  |  | 42000 ± 6e+07 M⁻¹ s⁻¹ | 38 ± 1 nM
